Reference: ChEMBL document CHEMBL1155271, “Synthesis, crystal structures and antibacterial activity studies of aza-derivatives of phytoalexin from cotton plant--gossypol” (2009)
Converted amounts (≈) assume the structure as drawn. The source made the active and inactive calls. The rule behind the calls is not given here.

How the values were obtained:
Type in all cases: functional
Staphylococcus aureus [1] = assay: Antimicrobial activity against Staphylococcus aureus ATCC 29213 after 18 hrs by twofold dilution technique; conditions: ATCC 29213, 18 h
Bacillus subtilis [2] = assay: Antimicrobial activity against Bacillus subtilis ATCC 6633 at 400 ug after 18 hrs by disk diffusion method; conditions: ATCC 6633, 18 h, read-out: DIZ
Staphylococcus aureus [3] = assay: Antimicrobial activity against Methicillin susceptible Staphylococcus aureus 213/7 by twofold dilution technique
Bacillus subtilis [4] = assay: Antimicrobial activity against Bacillus subtilis ATCC 6633 after 18 hrs by twofold dilution technique; conditions: ATCC 6633, 18 h
Bacillus cereus [5] = assay: Antimicrobial activity against Bacillus cereus ATCC 11778 at 400 ug after 18 hrs by disk diffusion method; conditions: ATCC 11778, 18 h, read-out: DIZ
Staphylococcus aureus [6] = assay: Antimicrobial activity against methicillin-resistant Staphylococcus aureus 200/7 by twofold dilution technique
Staphylococcus aureus [7] = assay: Antimicrobial activity against Staphylococcus aureus NCTC 4163 after 18 hrs by twofold dilution technique; conditions: NCTC 4163, 18 h
Staphylococcus aureus [8] = assay: Antimicrobial activity against Methicillin susceptible Staphylococcus aureus 242/7 by twofold dilution technique
Staphylococcus aureus [9] = assay: Antimicrobial activity against methicillin-resistant Staphylococcus aureus 140/6 by twofold dilution technique
Staphylococcus aureus [10] = assay: Antimicrobial activity against methicillin-resistant Staphylococcus aureus 141/6 by twofold dilution technique
Staphylococcus aureus [11] = assay: Antimicrobial activity against methicillin-resistant Staphylococcus aureus 218/7 by twofold dilution technique
[12] = test system: Staphylococcus epidermidis; assay: Antimicrobial activity against Staphylococcus epidermidis ATCC 12228 at 400 ug after 18 hrs by disk diffusion method; conditions: ATCC 12228, 18 h, read-out: DIZ
Micrococcus luteus [13] = assay: Antimicrobial activity against Micrococcus luteus ATCC 10240 at 400 ug after 18 hrs by disk diffusion method; conditions: ATCC 10240, 18 h, read-out: DIZ
Staphylococcus aureus [14] = assay: Antimicrobial activity against methicillin-resistant Staphylococcus aureus 217/7 by twofold dilution technique
[15] = test system: Staphylococcus epidermidis; assay: Antimicrobial activity against Staphylococcus epidermidis ATCC 12228 by twofold dilution technique
Staphylococcus aureus [16] = assay: Antimicrobial activity against Staphylococcus aureus ATCC 29213 at 400 ug after 18 hrs by disk diffusion method; conditions: ATCC 29213, 18 h, read-out: DIZ
Enterococcus hirae [17] = assay: Antimicrobial activity against Enterococcus hirae ATCC 10541 after 18 hrs by twofold dilution technique; conditions: ATCC 10541, 18 h
Staphylococcus aureus [18] = assay: Antimicrobial activity against Methicillin susceptible Staphylococcus aureus 212/7 by twofold dilution technique
Micrococcus luteus [19] = assay: Antimicrobial activity against Micrococcus luteus ATCC 9341 after 18 hrs by twofold dilution technique; conditions: ATCC 9341, 18 h
Staphylococcus aureus [20] = assay: Antimicrobial activity against methicillin-resistant Staphylococcus aureus 144/6 by twofold dilution technique
Staphylococcus aureus [21] = assay: Antimicrobial activity against Methicillin susceptible Staphylococcus aureus 206/7 by twofold dilution technique
Staphylococcus aureus [22] = assay: Antimicrobial activity against methicillin-resistant Staphylococcus aureus 143/6 by twofold dilution technique
Staphylococcus aureus [23] = assay: Antimicrobial activity against Staphylococcus aureus ATCC 25923 after 18 hrs by twofold dilution technique; conditions: ATCC 25923, 18 h
Bacillus cereus [24] = assay: Antimicrobial activity against Bacillus cereus ATCC 11778 after 18 hrs by twofold dilution technique; conditions: ATCC 11778, 18 h
Staphylococcus aureus [25] = assay: Antimicrobial activity against methicillin-resistant Staphylococcus aureus 236/7 by twofold dilution technique
Micrococcus luteus [26] = assay: Antimicrobial activity against Micrococcus luteus ATCC 9341 at 400 ug after 18 hrs by disk diffusion method
Staphylococcus aureus [27] = assay: Antimicrobial activity against Methicillin susceptible Staphylococcus aureus 237/7 by twofold dilution technique
Staphylococcus aureus [28] = assay: Antimicrobial activity against Staphylococcus aureus NCTC 4163 at 400 ug after 18 hrs by disk diffusion method; conditions: NCTC 4163, 18 h, read-out: DIZ
Staphylococcus aureus [29] = assay: Antimicrobial activity against Methicillin susceptible Staphylococcus aureus 207/7 by twofold dilution technique
Staphylococcus aureus [30] = assay: Antimicrobial activity against Methicillin susceptible Staphylococcus aureus 239/7 by twofold dilution technique
Enterococcus hirae [31] = assay: Antimicrobial activity against Enterococcus hirae ATCC 10541 at 400 ug after 18 hrs by disk diffusion method
Staphylococcus aureus [32] = assay: Antimicrobial activity against methicillin-resistant Staphylococcus aureus 136/6 by twofold dilution technique
Staphylococcus aureus [33] = assay: Antimicrobial activity against Methicillin susceptible Staphylococcus aureus 243/7 by twofold dilution technique
Micrococcus luteus [34] = assay: Antimicrobial activity against Micrococcus luteus ATCC 10240 by twofold dilution technique
Staphylococcus aureus [35] = assay: Antimicrobial activity against Staphylococcus aureus ATCC 6538 at 400 ug after 18 hrs by disk diffusion method; conditions: ATCC 6538, 18 h, read-out: DIZ
Staphylococcus aureus [36] = assay: Antimicrobial activity against Staphylococcus aureus ATCC 25923 at 400 ug after 18 hrs by disk diffusion method; conditions: ATCC 25923, 18 h, read-out: DIZ
Staphylococcus aureus [37] = assay: Antimicrobial activity against Methicillin susceptible Staphylococcus aureus 208/7 by twofold dilution technique
Staphylococcus aureus [38] = assay: Antimicrobial activity against Staphylococcus aureus ATCC 6538 after 18 hrs by twofold dilution technique; conditions: ATCC 6538, 18 h
Staphylococcus aureus [39] = assay: Antimicrobial activity against methicillin-resistant Staphylococcus aureus 146/6 by twofold dilution technique
Staphylococcus aureus [40] = assay: Antimicrobial activity against Methicillin susceptible Staphylococcus aureus 238/7 by twofold dilution technique

COCCOC(CN/N=C/c1c(O)c(O)c(C(C)C)c2cc(C)c(-c3c(C)cc4c(C(C)C)c(O)c(O)c(/C=N/NCC(OCCOC)OCCOC)c4c3O)c(O)c12)OCCOC
MIC (Staphylococcus aureus [1]): 400 µg/mL (≈ 445 µM)
zone of inhibition at 400 µg/disc (Bacillus subtilis [2]): 12 mm
MIC (Staphylococcus aureus [3]): 400 µg/mL (≈ 445 µM)
MIC (Bacillus subtilis [4]): > 400 µg/mL
zone of inhibition at 400 µg/disc (Bacillus cereus [5]): 12 mm
MIC (Staphylococcus aureus [6]): > 400 µg/mL
MIC (Staphylococcus aureus [7]): 400 µg/mL (≈ 445 µM)
MIC (Staphylococcus aureus [8]): 200 µg/mL (≈ 222 µM)
MIC (Staphylococcus aureus [9]): 400 µg/mL (≈ 445 µM)
MIC (Staphylococcus aureus [10]): 400 µg/mL (≈ 445 µM)
MIC (Staphylococcus aureus [11]): > 400 µg/mL
zone of inhibition at 400 µg/disc [12]: 13 mm
zone of inhibition at 400 µg/disc (Micrococcus luteus [13]): 14 mm
MIC (Staphylococcus aureus [14]): > 400 µg/mL
MIC [15]: > 400 µg/mL
zone of inhibition at 400 µg/disc (Staphylococcus aureus [16]): 11 mm
MIC (Enterococcus hirae [17]): 400 µg/mL (≈ 445 µM)
MIC (Staphylococcus aureus [18]): > 400 µg/mL
MIC (Micrococcus luteus [19]): 400 µg/mL (≈ 445 µM)
MIC (Staphylococcus aureus [20]): 400 µg/mL (≈ 445 µM)
MIC (Staphylococcus aureus [21]): 400 µg/mL (≈ 445 µM)
MIC (Staphylococcus aureus [22]): > 400 µg/mL
MIC (Staphylococcus aureus [23]): 400 µg/mL (≈ 445 µM)
MIC (Bacillus cereus [24]): 400 µg/mL (≈ 445 µM)
MIC (Staphylococcus aureus [25]): 400 µg/mL (≈ 445 µM)
diameter of the inhibition zone (DIZ) (Micrococcus luteus [26]): inactive
MIC (Staphylococcus aureus [27]): 400 µg/mL (≈ 445 µM)
zone of inhibition at 400 µg/disc (Staphylococcus aureus [28]): 11 mm
MIC (Staphylococcus aureus [29]): > 400 µg/mL
MIC (Staphylococcus aureus [30]): 400 µg/mL (≈ 445 µM)
diameter of the inhibition zone (DIZ) (Enterococcus hirae [31]): inactive
MIC (Staphylococcus aureus [32]): 400 µg/mL (≈ 445 µM)
MIC (Staphylococcus aureus [33]): > 400 µg/mL
MIC (Micrococcus luteus [34]): 400 µg/mL (≈ 445 µM)
zone of inhibition at 400 µg/disc (Staphylococcus aureus [35]): 11 mm
zone of inhibition at 400 µg/disc (Staphylococcus aureus [36]): 12 mm
MIC (Staphylococcus aureus [37]): > 400 µg/mL
MIC (Staphylococcus aureus [38]): 400 µg/mL (≈ 445 µM)
MIC (Staphylococcus aureus [39]): 400 µg/mL (≈ 445 µM)
MIC (Staphylococcus aureus [40]): 400 µg/mL (≈ 445 µM)

COCCOCCN/N=C/c1c(O)c(O)c(C(C)C)c2cc(C)c(-c3c(C)cc4c(C(C)C)c(O)c(O)c(/C=N/NCCOCCOC)c4c3O)c(O)c12
MIC (Staphylococcus aureus [1]): 100 µg/mL (≈ 133 µM)
zone of inhibition at 400 µg/disc (Bacillus subtilis [2]): 11 mm
MIC (Staphylococcus aureus [3]): 200 µg/mL (≈ 266 µM)
MIC (Bacillus subtilis [4]): 400 µg/mL (≈ 533 µM)
zone of inhibition at 400 µg/disc (Bacillus cereus [5]): 11 mm
MIC (Staphylococcus aureus [6]): 200 µg/mL (≈ 266 µM)
MIC (Staphylococcus aureus [7]): 200 µg/mL (≈ 266 µM)
MIC (Staphylococcus aureus [8]): 50 µg/mL (≈ 66.6 µM)
MIC (Staphylococcus aureus [9]): 200 µg/mL (≈ 266 µM)
MIC (Staphylococcus aureus [10]): 200 µg/mL (≈ 266 µM)
MIC (Staphylococcus aureus [11]): 200 µg/mL (≈ 266 µM)
zone of inhibition at 400 µg/disc [12]: 12 mm
zone of inhibition at 400 µg/disc (Micrococcus luteus [13]): 11 mm
MIC (Staphylococcus aureus [14]): 400 µg/mL (≈ 533 µM)
MIC [15]: > 400 µg/mL
zone of inhibition at 400 µg/disc (Staphylococcus aureus [16]): 13 mm
MIC (Enterococcus hirae [17]): 200 µg/mL (≈ 266 µM)
MIC (Staphylococcus aureus [18]): 400 µg/mL (≈ 533 µM)
MIC (Micrococcus luteus [19]): 200 µg/mL (≈ 266 µM)
MIC (Staphylococcus aureus [20]): 200 µg/mL (≈ 266 µM)
MIC (Staphylococcus aureus [21]): 100 µg/mL (≈ 133 µM)
MIC (Staphylococcus aureus [22]): 400 µg/mL (≈ 533 µM)
MIC (Staphylococcus aureus [23]): 200 µg/mL (≈ 266 µM)
MIC (Bacillus cereus [24]): 100 µg/mL (≈ 133 µM)
MIC (Staphylococcus aureus [25]): 100 µg/mL (≈ 133 µM)
diameter of the inhibition zone (DIZ) (Micrococcus luteus [26]): inactive
MIC (Staphylococcus aureus [27]): 200 µg/mL (≈ 266 µM)
zone of inhibition at 400 µg/disc (Staphylococcus aureus [28]): 12 mm
MIC (Staphylococcus aureus [29]): 400 µg/mL (≈ 533 µM)
MIC (Staphylococcus aureus [30]): 400 µg/mL (≈ 533 µM)
diameter of the inhibition zone (DIZ) (Enterococcus hirae [31]): inactive
MIC (Staphylococcus aureus [32]): 100 µg/mL (≈ 133 µM)
MIC (Staphylococcus aureus [33]): 400 µg/mL (≈ 533 µM)
MIC (Micrococcus luteus [34]): 200 µg/mL (≈ 266 µM)
zone of inhibition at 400 µg/disc (Staphylococcus aureus [35]): 12 mm
zone of inhibition at 400 µg/disc (Staphylococcus aureus [36]): 12 mm
MIC (Staphylococcus aureus [37]): 400 µg/mL (≈ 533 µM)
MIC (Staphylococcus aureus [38]): 100 µg/mL (≈ 133 µM)
MIC (Staphylococcus aureus [39]): 200 µg/mL (≈ 266 µM)
MIC (Staphylococcus aureus [40]): 100 µg/mL (≈ 133 µM)
